biological target: T1, human Werner helicase (WRN-BV08, Uniprot Q14191, amino acids 517-1235 with L1074F point mutation) (Homo sapiens, UniProt Q14191, L1074F); assay: WRN (BV08) ADP-Glo Assay; assay type: biochemical; details: 0.15 nM WRN, 5 μM ATP, 0.1 nM DNA duplex, 15 min preincubation, 60 min at 25° C., pH 7.5, 1% DMSO; read-out: ADP-Glo_hWRN_IC50
T1 construct: Uniprot Q14191, amino acids 517-1235 with L1074F point mutation; TEV-cleavable 8×His (C, cleaved yes); made in house; host or cells: Sf9 insect cells (baculovirus)
T1 sequence (Q14191 with tags, fused parts or gaps L1074F limits assumed): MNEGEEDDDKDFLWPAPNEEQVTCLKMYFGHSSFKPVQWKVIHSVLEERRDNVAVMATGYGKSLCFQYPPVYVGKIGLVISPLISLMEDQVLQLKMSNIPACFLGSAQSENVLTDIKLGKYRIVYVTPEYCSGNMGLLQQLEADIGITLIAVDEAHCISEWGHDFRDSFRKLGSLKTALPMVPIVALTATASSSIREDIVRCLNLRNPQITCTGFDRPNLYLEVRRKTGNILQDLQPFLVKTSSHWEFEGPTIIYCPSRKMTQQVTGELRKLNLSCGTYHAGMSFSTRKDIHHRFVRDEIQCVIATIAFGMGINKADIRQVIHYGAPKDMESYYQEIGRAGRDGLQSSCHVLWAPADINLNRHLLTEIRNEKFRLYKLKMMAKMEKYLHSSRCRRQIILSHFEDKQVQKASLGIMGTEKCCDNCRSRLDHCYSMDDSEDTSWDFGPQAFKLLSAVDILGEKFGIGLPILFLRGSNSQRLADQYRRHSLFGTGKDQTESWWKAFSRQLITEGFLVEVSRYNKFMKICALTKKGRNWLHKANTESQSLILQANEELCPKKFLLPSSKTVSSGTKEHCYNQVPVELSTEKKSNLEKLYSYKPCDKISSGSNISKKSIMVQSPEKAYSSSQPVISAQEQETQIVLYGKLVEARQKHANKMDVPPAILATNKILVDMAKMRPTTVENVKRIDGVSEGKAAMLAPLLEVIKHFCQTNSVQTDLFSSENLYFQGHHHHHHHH
How it was run: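 ADP-Glo luminescence read-out of ATP hydrolysis. Conditions: 0.15 nM WRN, 5 μM ATP, 0.1 nM DNA duplex, 1% DMSO, 60 min at 25 °C after 15 min compound preincubation. Max/min controls were DMSO and 20 μM NSC-617145; IC50 from four-parameter fit.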

IC50 [µM] | Structure (SMILES)
> 50 | O=C(Cc1ccc2c(c1)OCO2)N(Cc1ccncc1)C1C=CS(=O)(=O)C1 (centres unmarked) [I-494, 2-(2H-1,3-benzodioxol-5-yl)-N-(1,1-dioxo-2,3-dihydro-1lambda6-thiophen-3-yl)-N-[(pyridin-4-yl)methyl]acetamide]
10 to 50 | COc1cc(CN(C(=O)C(C(=O)N(C)C)c2ccc(-c3ccc(F)cc3)cc2F)C2C=CS(=O)(=O)C2)ccn1 (single isomer, unassigned) [I-267, (2R**)-2-{3,4′-difluoro-[1,1′-biphenyl]-4-yl}-N-[(3R*)-1,1-dioxo-2,3-dihydro-1lambda6-thiophen-3-yl]-N-[(2-methoxypyridin-4-yl)methyl]-N′,N′-dimethylpropanediamide]
< 0.5 | COc1cc(CN(C(=O)Cc2ccc(-n3cccc3C)cc2F)C2C=CS(=O)(=O)C2)ccn1 (centres unmarked) [I-69, N-(1,1-dioxo-2,3-dihydro-1lambda6-thiophen-3-yl)-2-[2-fluoro-4-(2-methyl-1H-pyrrol-1-yl)phenyl]-N-[(2-methoxypyridin-4-yl)methyl]acetamide]
> 50 | O=C(C1Cc2ccc(-n3cccc3)cc2C1)N(Cc1ccncc1)C1C=CS(=O)(=O)C1 (centres unmarked) [I-422, N-(1,1-dioxo-2,3-dihydro-1lambda6-thiophen-3-yl)-N-[(pyridin-4-yl)methyl]-5-(1H-pyrrol-1-yl)-2,3-dihydro-1H-indene-2-carboxamide]
5 to 10 | COc1cc(CN(C(=O)C(OC2COC2)c2ccc(-c3ccc(F)c(F)c3)cc2F)[C@@H]2C=CS(=O)(=O)C2)ccn1 (stereo partly drawn) [I-752, N-[(3R)-1,1-dioxo-2,3-dihydro-1lambda6-thiophen-3-yl]-N-[(2-methoxypyridin-4-yl)methyl]-2-(oxetan-3-yloxy)-2-{3,3′,4′-trifluoro-[1,1′-biphenyl]-4-yl}acetamide]
< 0.5 | CC(C)(O)c1cc(CN(C(=O)Cn2cc(-c3ccc(F)c(F)c3F)cn2)C2C=CS(=O)(=O)C2)ccn1 (single isomer, unassigned) [I-704]
10 to 50 | O=C(Cc1ccc(-c2ccccc2)cc1)N(Cc1ccncc1)C1C=CS(=O)(=O)C1 (centres unmarked) [I-323, 2-{[1,1′-biphenyl]-4-yl}-N-(1,1-dioxo-2,3-dihydro-1lambda6-thiophen-3-yl)-N-[(pyridin-4-yl)methyl]acetamide]
> 50 | O=C(C1CC(Cc2ccccc2)=NO1)N(Cc1ccncc1)C1C=CS(=O)(=O)C1 (centres unmarked) [I-579, 3-benzyl-N-(1,1-dioxo-2,3-dihydro-1lambda6-thiophen-3-yl)-N-[(pyridin-4-yl)methyl]-4,5-dihydro-1,2-oxazole-5-carboxamide]
0.5 to 5 | O=C(Cc1ccc(-n2cccc2)cc1)N(Cc1ccnc(-c2ccccc2)c1)C1C=CS(=O)(=O)C1 (centres unmarked) [I-297, N-(1,1-dioxo-2,3-dihydro-1lambda6-thiophen-3-yl)-N-[(2-phenylpyridin-4-yl)methyl]-2-[4-(1H-pyrrol-1-yl)phenyl]acetamide]
> 50 | COc1cc(CN(C(=O)C(c2ccc(-c3ccc(F)c(F)c3)cc2F)n2nccc2C)[C@@H]2C=CS(=O)(=O)C2)ccn1 (single isomer, unassigned) [I-738, (2R*)-N-[(3R)-1,1-dioxo-2,3-dihydro-1lambda6-thiophen-3-yl]-N-[(2-methoxypyridin-4-yl)methyl]-2-(5-methyl-1H-pyrazol-1-yl)-2-{3,3′,4′-trifluoro-[1,1′-biphenyl]-4-yl}acetamide]
0.5 to 5 | CC(C)(O)c1csc(CN(C(=O)Cn2cc(-c3cc(F)c(F)c(F)c3)cn2)C2C=CS(=O)(=O)C2)n1 (single isomer, unassigned) [I-799]
> 50 | O=C(/C=C/c1ccccc1)N(Cc1ccncc1)C1C=CS(=O)(=O)C1 (centres unmarked) [I-530, (2E)-N-(1,1-dioxo-2,3-dihydro-1lambda6-thiophen-3-yl)-3-phenyl-N-[(pyridin-4-yl)methyl]prop-2-enamide]
< 0.5 | O=C(Cn1cc(-c2ccc(F)c(F)c2)cn1)N(Cc1ccnc(OCCN2CCOCC2)c1)C1C=CS(=O)(=O)C1 (centres unmarked) [I-761, 2-[4-(3,4-difluorophenyl)-1H-pyrazol-1-yl]-N-(1,1-dioxo-2,3-dihydro-1lambda6-thiophen-3-yl)-N-({2-[2-(morpholin-4-yl)ethoxy]pyridin-4-yl}methyl)acetamide]
< 0.5 | COc1cc(CN(C(=O)[C@H](C(=O)N(C)C)c2ccc(-c3ccc(F)cc3)cc2F)[C@@H]2C=CS(=O)(=O)C2)ccn1 [I-9, (2S)-2-{3,4′-difluoro-[1,1′-biphenyl]-4-yl}-N-[(3R)-1,1-dioxo-2,3-dihydro-1lambda6-thiophen-3-yl]-N-[(2-methoxypyridin-4-yl)methyl]-N′,N′-dimethylpropanediamide]
< 0.5 | COc1cc(CN(C(=O)Cn2cc(-c3ccc(F)cc3)cn2)[C@@H]2C=CS(=O)(=O)C2)ccn1 [I-26, N-[(3R)-1,1-dioxo-2,3-dihydro-1lambda6-thiophen-3-yl]-2-[4-(4-fluorophenyl)-1H-pyrazol-1-yl]-N-[(2-methoxypyridin-4-yl)methyl]acetamide]
0.5 to 5 | CC(C)(O)c1cc(CN(C(=O)Cn2nc(-c3cc(F)c(F)c(F)c3)cc2N)C2C=CS(=O)(=O)C2)ccn1 (single isomer, unassigned) [I-821]
0.5 to 5 | Cc1cccn1-c1ccc(CC(=O)N(Cc2ccnc3c2CCC3O)C2C=CS(=O)(=O)C2)c(F)c1 (centres unmarked) [I-103, N-(1,1-dioxido-2,3-dihydrothiophen-3-yl)-2-(2-fluoro-4-(2-methyl-1H-pyrrol-1-yl)phenyl)-N-((7-hydroxy-6,7-dihydro-5H-cyclopenta[b]pyridin-4-yl)methyl)acetamide]
0.5 to 5 | C#CCCCC(=O)N1CCN(Cc2ccc(CN(C(=O)Cc3ccc(-n4cccc4)cc3F)C3C=CS(=O)(=O)C3)cc2)CC1 (centres unmarked) [I-211, N-(1,1-dioxo-2,3-dihydro-1lambda6-thiophen-3-yl)-2-[2-fluoro-4-(1H-pyrrol-1-yl)phenyl]-N-[(4-{[4-(hex-5-ynoyl)piperazin-1-yl]methyl}phenyl)methyl]acetamide]
> 50 | CS(=O)(=O)c1ccc(CC(=O)N(Cc2ccncc2)C2C=CS(=O)(=O)C2)cc1 (centres unmarked) [I-527, N-(1,1-dioxo-2,3-dihydro-1lambda6-thiophen-3-yl)-2-(4-methanesulfonylphenyl)-N-[(pyridin-4-yl)methyl]acetamide]
> 50 | Cc1nn(-c2ccc(F)cc2F)c(C)c1CC(=O)N(Cc1ccncc1)C1C=CS(=O)(=O)C1 (centres unmarked) [I-816, 2-[1-(2,4-difluorophenyl)-3,5-dimethyl-1H-pyrazol-4-yl]-N-(1,1-dioxo-2,3-dihydro-1lambda6-thiophen-3-yl)-N-[(pyridin-4-yl)methyl]acetamide]
> 50 | Cn1cc2cc(CC(=O)N(Cc3ccncc3)C3C=CS(=O)(=O)C3)ccc2n1 (centres unmarked) [I-656, N-(1,1-dioxo-2,3-dihydro-1lambda6-thiophen-3-yl)-2-(2-methyl-2H-indazol-5-yl)-N-[(pyridin-4-yl)methyl]acetamide]
10 to 50 | O=C(Cn1ncc(-c2ccccc2)n1)N(Cc1ccncc1)C1C=CS(=O)(=O)C1 (centres unmarked) [I-291, N-(1,1-dioxo-2,3-dihydro-1lambda6-thiophen-3-yl)-2-(4-phenyl-2H-1,2,3-triazol-2-yl)-N-[(pyridin-4-yl)methyl]acetamide]
> 50 | O=C(Cc1ccc(-n2cccc2)cc1)N(C1C=CS(=O)(=O)C1)[C@H]1CCOc2ccccc21 (stereo partly drawn) [I-550, N-[(4S)-3,4-dihydro-2H-1-benzopyran-4-yl]-N-(1,1-dioxo-2,3-dihydro-1lambda6-thiophen-3-yl)-2-[4-(1H-pyrrol-1-yl)phenyl]acetamide]
> 50 | O=C(Cn1cc(C2CCOC2)cn1)N(Cc1ccncc1)C1C=CS(=O)(=O)C1 (centres unmarked) [I-407, N-(1,1-dioxo-2,3-dihydro-1lambda6-thiophen-3-yl)-2-[4-(oxolan-3-yl)-1H-pyrazol-1-yl]-N-[(pyridin-4-yl)methyl]acetamide]
0.5 to 5 | C#CCN(C)C(=O)c1ccc(CN(C(=O)Cc2ccc(-n3cccc3)cc2F)C2C=CS(=O)(=O)C2)cc1 (centres unmarked) [I-153, 4-{[N-(1,1-dioxo-2,3-dihydro-1lambda6-thiophen-3-yl)-2-[2-fluoro-4-(1H-pyrrol-1-yl)phenyl]acetamido]methyl}-N-methyl-N-(prop-2-yn-1-yl)benzamide]
< 0.5 | CNC(=O)C(C(=O)N(Cc1ccnc(C(C)(C)O)c1)[C@@H]1C=CS(=O)(=O)C1)c1ccc(-c2ccc(F)c(F)c2)cc1F (some centres unmarked) [I-3, N1-(1,1-dioxido-2,3-dihydrothiophen-3-yl)-N1-((2-(2-hydroxypropan-2-yl)pyridin-4-yl)methyl)-N3-methyl-2-(3,3′,4′-trifluoro-[1,1′-biphenyl]-4-yl)malonamide]
> 50 | COc1cc(CN(C(=O)C(c2ccc(-c3ccc(F)c(F)c3)cc2F)n2cc(OC(F)F)cn2)[C@@H]2C=CS(=O)(=O)C2)ccn1 (single isomer, unassigned) [I-696, (2R*)-2-[4-(difluoromethoxy)-1H-pyrazol-1-yl]-N-[(3R)-1,1-dioxo-2,3-dihydro-1lambda6-thiophen-3-yl]-N-[(2-methoxypyridin-4-yl)methyl]-2-{3,3′,4′-trifluoro-[1,1′-biphenyl]-4-yl}acetamide]
0.5 to 5 | O=C(C(C(=O)N(Cc1ccncc1)C1C=CS(=O)(=O)C1)c1ccc(-c2ccc(F)cc2)cc1)N1CCC1 (centres unmarked) [I-140, 3-(azetidin-1-yl)-N-(1,1-dioxo-2,3-dihydro-1lambda6-thiophen-3-yl)-2-{4′-fluoro-[1,1′-biphenyl]-4-yl}-3-oxo-N-[(pyridin-4-yl)methyl]propanamide]
> 50 | O=C(Cc1ccc2oc3ccccc3c2c1)N(Cc1ccncc1)C1C=CS(=O)(=O)C1 (centres unmarked) [I-428, N-(1,1-dioxo-2,3-dihydro-1lambda6-thiophen-3-yl)-2-{8-oxatricyclo[7.4.0.0^{2,7}]trideca-1(13),2,4,6,9,11-hexaen-4-yl}-N-[(pyridin-4-yl)methyl]acetamide]

From patent US20260297070A1, “CYCLIC [COMPOUND LEFT OUT] WRN INHIBITORS” (Nimbus Wadjet, Inc., priority 2023, published 2026)
